Tests used:
DPPIV−/− knockout mice = assay: LSEC engraftment/repopulation of irradiated liver by DPPIV staining (Examples 2 and 3); type: in vivo, mouse; conditions: targeted liver irradiation (50 Gy)
Method: 8-12-week-old male and female Di-peptyl peptidase IV (DPPIV) −/− knockout mice and 8-12-week-old male and female C57Bl6 mice were used in this study. Animals were weighed in the beginning of the experiment and before tissue collection. All animals were housed in the Institute for Animal Studies at Albert Einstein College of medicine and fed regular rodent chow. All experiments were performed to according to protocols approved by Institutional Animal Care and Use Committee at Albert Einstein College of Medicine. Animals were made cirrhotic using CCl4 administration (intraperitoneal [IP] injections twice a week for at least 11 weeks).
Image-guided external beam irradiation was performed using a small animal radiation research platform (SARRP, Xstrahl Inc., Suwanee, Ga.). Mice were given gastrografin contrast through gavage to improve visualization of the gastrointestinal (GI) tract. After approximately 2 minutes, mice were positioned on a tubular couch and anesthetized with ˜2% Isofluorane (Isothesia, USP) in 2 L/min pure oxygen. A cone-beam computed tomography (CBCT) scan was acquired and a treatment plan irradiating the median lobe and right lobe was generated using the MuriPlan software. […] Within the targeted lobes, the position of the isocenter was chosen to minimize irradiation of the GI tract, spine, and heart (the maximum dose to these organs was kept below 10 Gy). Targets were irradiated with 50 Gy X-rays at 220 kVp energy and 13 mA tube current (dose rate of 2.4-2.5 Gy/min) using a 1 mm copper filter for beam hardening.
TPOm was diluted in sterile PBS to a 10 mg/ml stock. The stock was stored at −20° C. and allowed to come to room temperature prior to administration. TPOm was administered as a single dose (300 μg/kg) via subcutaneous injection 10 minutes after the transplant procedure.
DPPIV was selected as a marker for engraftment of exogenous LSECs in the DPPIV (−/−) animals. […] Slide imaging was done using a Perkin Elmer P250 High Capacity Slide Scanner.
LSECs were isolated from the single-cell suspension using CD146 microbeads (Miltenyi Biotec GmbH #130-092-007).
Following isolation of LSECs, 500×10^5 LSECs are transplanted via intrasplenic injection into healthy adult mice anesthetized with Isoflurane (Isothesia, USP) 24 hrs post HIR. Buprenorphine is given post-op as an analgesic.
To test the efficacy of TPOm as an agent that can cause LSEC engraftment, DPPIV−/− knockout mice received 50GY hepatic irradiation (HIR) to the median and right lobes of the liver using external-beam CT-guided x-ray irradiation, and LSECs that express DPPIV (FIG. 2A).
The methods were identical to those described above with the exception that the LSEC transplant was administered 4-5 days post irradiation and the TPOm or Romiplostim were administered approximately 10 minutes post LSEC transplant.

DPPIV KO mice = assay: Engraftment of transplanted LSECs and hepatocytes by DPPIV immunostaining after HIR (Example 7); type: in vivo, mouse; conditions: Study A; 2 months after HIR; 50 Gy; LSECs 4 or 5 days after HIR; 300 μg/kg intraperitoneally 10 minutes after LSEC transplantation
Method: 8-12-week-old male Di-peptyl peptidase IV knockout (Dppiv^−/−) mice and 8-12-week-old male C57BL/6 mice were used in this study.
The methods were identical to Experiment 5 as described above; including the preparation of test articles (solutions of RWJ-800088), isolation and transplant of LSECs, and Hepatic irradiation. In addition, Romiplostim was purchased from pharmacy and came in 250 μg powder. It was reconstituted per manufacturers description using solvent for solution for injection. After reconstitution, a deliverable volume of 0.5 mL solution contained 250 μg of romiplostim (500 μg/mL).
Animals were weighed in the beginning of the experiment.
The mice were transplanted with DPPIV^+ 5×10^5 liver sinusoidal endothelial cells (LSECs) intrasplenically 4 or 5 days later. The mice were then injected with 300 μg/kg of RWJ-800088 or Romiplostim intraperitoneally 10 minutes after LSEC transplantation as shown in Table 7.
The mice were then monitored until they made a full recovery and returned to the cage. The mice were followed for 2 and 5 months and necropsied. The liver was excised and prepared for the frozen section. The immunostaining of DPPIV activity was performed to examine the repopulation of the transplanted DPPIV^+ cells in the liver. […]

With romiplostim [reference compound] the “Engraftment when LSEC transplant is administered 24 hours post irradiation” value (DPPIV−/− knockout mice) was “Yes”, the “Engraftment when LSEC transplant is administered 4-5 days post irradiation” value (DPPIV−/− knockout mice; drug approximately 10 minutes post LSEC transplant) was “Yes” and the “repopulation of LSECs in the irradiated liver tissue (DPPIV immunostaining)” value (DPPIV KO mice) was “repopulation of LSECs in the irradiated liver tissue was observed”.

Reference: US20200237871A1, “METHODS FOR MITIGATING LIVER INJURY AND PROMOTING LIVER HYPERTROPHY, REGENERATION AND CELL ENGRAFTMENT IN CONJUNCTION WITH RADIATION AND/OR RADIOMIMETIC TREATMENTS” (Janssen Pharmaceutica NV, priority 2019, published 2020)
